In patent publication EP1310250A1, “Use of the compound 2-methoxyphenyl-1-methyl-5P-methylbenzoyl-pyrrol-2-acetamido acetate for the production of an antiinflammatory drug with prevention of gastric hypersecretion and renal impairment” (MEDOSAN Ricerca S.r.l., priority 1997, dated 1999):

What was measured:
[1] = test system: post-operative pain; assay: Clinical trials: analgesic properties in post-operative pain; format: in vivo, man; design: key to Antiphlogistic activity evaluation: excellent ^++++; good ^+++; poor ^++
Protocol: As reported in Table 14, the analgesic properties of amtolmetin guacyl were tested in postoperative pain with good results. […] The peak effect is obtained only after 2 hours, and it is maintained for 6 hours.

[2] = test system: human lymphocites; assay: Chromosome aberrations in lymphocytes cultivated in vitro; format: cell-based
[3] = test system: gastric lesions; assay: Clinics with before/after endoscopies; format: in vivo, man; details: especially when administered on an empty stomach
[4] = test system: rat gastric mucosa; details: male, Wistar, in vivo, po, 4 days
Protocol: The animals entered in the trial, randomized and divided into groups of 6 rats each, were fasted for 16 h prior to treatment, with access to water ad libitum. They were re-fed 1 h after drug administration. The compound 2-methoxyphenyl-1-methyl-5p-methylbenzoyl-pyrrol-2-acetamido acetate and the other reference NSAIDs, suspended in 1% carboxymethylcellulose (CMC) solution, were orally administered by gastric gavage in a volume of 6ml/kg for four consecutive days. Controls received the vehicle in the same way as the treated animals. 4 h after the last administration the animals were killed by ether overdose; the stomachs were removed, rinsed with 10 ml of saline and immersed in 1% formalin. They were later opened along the greater curvature and the mucosa examined for lesions.
The seriousness of the lesion was quantified according to a scale graduated from 1 to 3 according to the size of the lesions: 1= ulcer < 1mm; 2= ulcer 1-2mm; 3= ulcer > 2mm. The total sum was divided by 10 to obtain the "erosion index". The gastric lesions were evaluated by two independent investigators under blind conditions according to Main & Whittle method (BJ Pharmac 1975:53; p. 217-224).
Since the average daily dose in man (for the anti-inflammatory activity) is 600 mg, the comparative efficacious dose in the rat is in the ratio of 12:1. More precisely, comparative evaluation with the other NSAID compounds was calculated as follows: 600 mg/die: 50 mg/kg = daily dose of reference NSAID in man: X [formula] where X represents the daily dose of the reference NSAID in rat. This criterion keeps into account the "real" activity ratio in man. In this work the "ratio to rat dosage" has also been included which keeps into account ratios homogeneous to the same animal species. To evaluate the "ratio to rat dosage" the ID50 has been determined using the carrageenin-induced oedema as inflammatory test.
In order to exacerbate possible side effects on the stomach the dosage of amtolmetin guacyl was quadruplicated.

[5] = test system: isolated, perfused, immature rat stomach; assay: Antisecretive activity in vitro, isolated perfused immature rat stomach; details: for Δacid: mean±S.E.
Excerpt: Male Wistar rats, 250±10 g b.w. (Charles River, Calco, Como, Italy), quarantined for five days prior to the beginning of the trial and divided into groups of 3 animals per cage, were used for determination of gastric lesions and of ID50 determination. Immature male Wistar rats, 30-45 g b.w. (Harlan Nossan, Milano) were used for the determination of the antisecretory effect on isolated rat stomach. The guinea-pigs used were the Dunkin Hartley guinea-pigs (Harlan Nossan, Milano, Italy).
At the beginning, the isolated, perfused, immature rat stomach, treated externally with the study product, was used. We preferred to use the isolated stomach in toto rather than strips (B.R. No. 18, 19 and 20) in order not to exclude a section of the stomach (the antrum), unimportant for acid secretion but very important for the secretion of bicarbonates and bioactive peptides (b.r. No. 21, 22). The results were encouraging, since amtolmetin guacyl inhibited acid production stimulated by the three classic agonists (histamine, acetilcholine and gastrin) both using varying doses of agonist or varying doses of amtolmetin guacyl (Table 5).
The results are expressed as mean±S.E.

[6] = test system: fertility, embriotoxicity and teratogenicity; assay: Fertility, embryotoxicity and teratogenicity studies, rat; format: in vivo
[7] = in vivo
[8] = target: T1, H2 receptors (Cavia porcellus, UniProt P47747); assay: Effect on H2 receptors of isolated atrium, histamine stimulation; details: guinea-pig atrium, stimulation by histamine (fig. 5)
T1 construct: an organ in which only H2 receptors were present (guinea-pig atrium); from tissue; host or cells: guinea-pig atrium (isolated organ)
Excerpt: On the basis of the above series of observations, we decided to study the pharmacological behaviour of a number of widely used NSAIDs (including amtolmetin guacyl) towards the gastric mucosa in the rat, as previously described. […] The first hypothesis was that we were deling with an anti-H2 drug, given the fact that its potency could be compared with that of cimetidine.

[9] = test system: guinea-pig isolated ileum; assay: Intestinal motility in isolated ileum, various agonists; details: all of the traditional agonists: histamine, acetylcholine, serotonin (fig. 7, 8 and 9)
Excerpt: In parallel we also studied the possible effect on intestinal motility in the guinea-pig isolated ileum (b.r. No. 29) using various agonists (fig. 7, 8 and 9).

[10] = test system: diuresis; assay: Diuresis in normally hydrated rats; format: in vivo; details: normally hydrated rats treated orally for 8 consecutive days (figure 13)
Protocol: In the course of various studies conducted on animals to show the lack of renal impairment, a test was carried out to compare the diuresis in normally hydrated rats treated orally for 8 consecutive days with amtolmeting guacyl and diclofenac, which is also a NSAID.

[11] = test system: rheumatoid arthritis; assay: Clinical trials: antiphlogistic activity in rheumatoid arthritis; format: in vivo, man; design: key to Antiphlogistic activity evaluation: excellent ^++++; good ^+++; poor ^++
Excerpt: Amtolmetin guacyl was compared with ibuprofen, indomethacin, piroxicam and tolmetin.

[12] = test system: extra-articular rheumatism; assay: Clinical trials: antiphlogistic activity in extra-articular rheumatism; format: in vivo, man; design: key: excellent ^++++; good ^+++; poor ^++
Excerpt: In extra-articular rheumatism amtolmetin guacyl was compared with diclofenac, naproxen and piperazine propionate.

[13] = test system: gastric mucosa; assay: Histological evaluation of the gastric mucosa by an independent laboratory; details: oral gavage: amtolmetin guacyl 50 mg/kg, diclofenac 7.5 mg/kg, tolmetin 66.6 mg/kg
Protocol: In order to obtain a histological evaluation of the results obtained in our laboratories, an independent laboratory was provided with identical samples of the material evaluated by us, under totally blind conditions.
Controls received the vehicle only, also by oral gavage. 4 h after the final administration the animals were killed by ether overdose and the stomachs removed, rinsed in saline and immersed in formalin 4%.

[14] = agonist Acetylcholine 10^-3 M, antagonist 10^-4 M
[15] = agonist Gastrin 6x10^-7 M, antagonist 10^-4 M
[16] = agonist Histamine 10^-3 M, antagonist 10^-4 M
[17] = agonist Histamine 10^-4 M, antagonist 10^-4 M
[18] = agonist Histamine 10^-4 M, antagonist 10^-5 M

T1 sequence (P47747 whole entry): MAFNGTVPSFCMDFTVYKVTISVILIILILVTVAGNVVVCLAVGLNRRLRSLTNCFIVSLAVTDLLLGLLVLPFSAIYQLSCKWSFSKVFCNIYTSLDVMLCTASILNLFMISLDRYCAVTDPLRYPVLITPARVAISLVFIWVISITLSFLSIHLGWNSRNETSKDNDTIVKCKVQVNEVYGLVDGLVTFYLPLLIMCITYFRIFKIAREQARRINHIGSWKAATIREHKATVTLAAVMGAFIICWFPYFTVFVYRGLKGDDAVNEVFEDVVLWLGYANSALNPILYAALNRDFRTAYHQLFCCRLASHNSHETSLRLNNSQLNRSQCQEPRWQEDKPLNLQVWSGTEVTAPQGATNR

Compound: COc1ccccc1OC(=O)CNC(=O)Cc1ccc(C(=O)c2ccc(C)cc2)n1C [amtolmetin guacyl, 2-methoxyphenyl-1-methyl-5p-methylbenzoylpyrrol-2-acetamido acetate]
- Antiphlogistic activity evaluation [1]: ^++++
- time for which the effect is maintained [1]: 6 h
- Duration ([1]; 1200mg, 100 patients): 360 min
- Latency ([1]; 1200mg, 100 patients): 30 min
- Max. time effect ([1]; 1200mg, 100 patients): 180 min
- time at which the antalgic effect is already evaluable ([1]; following administration): 30 '
- chromosomic aberrations [2]: absence of amtolmetin guacyl-related damage
- induction of gastric lesions [3]: not to induce gastric lesions
- Gastrolesive index [4]: 1.0
- % inhib. [5, 14]: 21.5%
- Δacid [5, 14]: 71.2 ± 5.4 nmol/min
- % inhib. [5, 15]: 52.1%
- Δacid [5, 15]: 30.7 ± 3.7 nmol/min
- % inhib. [5, 16]: 57.7%
- Δacid [5, 16]: 17.9 ± 2.1 nmol/min
- % inhib. [5, 17]: 62.6%
- Δacid [5, 17]: 19.2 ± 5.4 nmol/min
- % inhib. [5, 18]: 68.7%
- Δacid [5, 18]: 16.1 ± 5.4 nmol/min
- fertility, embriotoxicity and teratogenicity [6]: demonstrated the safety product
- drug tolerability [7]: excellent drug tolerability
- interference with the H2 receptors [8]: did not interfere with the H2 receptors
- intestinal motility [9]: decrease in motility
- diuresis [10]: definite increase in diuresis
- Evaluation of antiphlogistic activity ([11]; 150 patients, 30 days, versus Ibuprofen, Indomethacin, Piroxicam, Tolmetin): Amtolmetin guacyl demonstrated statistical significant activity more rapid and more marked when compared to the reference NSAIDs in rheumatoid arthritis.
- Antiphlogistic activity evaluation ([11]; Rheumatoid arthritis): ^++++
- Antiphlogistic activity evaluation [12]: ^+++
- Histology [13]: no histological lesions
- Macroscopic findings ([13]; single animals): 0
- Microscopic findings ([13]; single animals): 0
